{"source": "patent US20080207569A1", "about": "“Methods for the treatment of liver diseases” (priority 2007, published 2008)", "key": {"[1]": {"tested_on": "TNF-α/D-Galactosamine induced liver injury", "assay": "TNF-α model of liver injury (TNFα/D-Gln), plasma ALT activity", "assay_type": "in vivo, male C57B1/6 mice", "experimental": "TNF-α is a cytokine that is implicated in inducing liver injury in a variety of acute and chronic liver diseases such as chronic HCV and acute liver failure. An exemplary in vivo model to test pharmacological agents against TNF-α induced injury is the TNF-α/D-Gal model of liver injury in mice. In this model, mice are treated with TNF-α/D-Gal and compound is administered to evaluate its ability to protect against liver damage. The compound is administered either before, at the time of or after the treatment with TNF-α/D-Gal, and followed for a period of approximately 6 hours. […]\nMultiple outcome measures are used for this evaluation. […] The extent of liver damage can be graded by examining liver samples prepared and evaluated microscopically by trained observers. […] In certain embodiment, compounds described herein protect against TNF-α/D-Gal induced liver injury as determined by these parameters. In certain embodiment, compounds described herein protect against Fas induced liver injury as determined by these parameters. […]\nIn vivo efficacy of RO-113-0830 was assessed using male C57B1/6 mice (Simonsen Labs) in two well-established models of liver damage. […]\nIn the TNF-α model of liver injury, D-Galactosamine (D-Gln) (800 mg/kg) and TNFα (20 or 40 μg/kg) were injected IP. […] Plasma ALT activity was determined using a kit from Sigma-Aldrich."}, "[2]": {"tested_on": "TNF-α/D-Galactosamine induced liver injury", "assay": "TNF-α model of liver injury, 24 hour survival", "assay_type": "in vivo, male C57B1/6 mice", "conditions": "TNF-α/D-Gln IP; average from 3 studies; p=0.03 vs control mice (27±7.3%)", "experimental": "TNF-α is a cytokine that is implicated in inducing liver injury in a variety of acute and chronic liver diseases such as chronic HCV and acute liver failure. An exemplary in vivo model to test pharmacological agents against TNF-α induced injury is the TNF-α/D-Gal model of liver injury in mice. In this model, mice are treated with TNF-α/D-Gal and compound is administered to evaluate its ability to protect against liver damage. The compound is administered either before, at the time of or after the treatment with TNF-α/D-Gal, and followed for a period of approximately 6 hours. Allowing this model to persist past 6 hours is a variation used to determine the improved survival afforded by compound treatment.\n(§1) In vivo efficacy of RO-113-0830 was assessed using male C57B1/6 mice (Simonsen Labs) in two well-established models of liver damage. The mice were allowed to acclimate for at least three days.\nTo determine a benefit on survival, TNF-α model, D-Galactosamine (D-Gln) (800 mg/kg) and TNF-α (20 or 40 μg/kg) were injected IP, and mice were allowed to survive for 24 hours post insult. All morbid mice were euthanized with 125 mg/kg of Nembutal IP. The average 24 hour survival from 3 studies was 27±7.3% and. 55±7.6% (p=0.03) in the TNFα/D-Gln control mice and RO-113-0830-treated mice, respectively."}, "Fas-induced liver damage": {"tested_on": "Fas-induced liver damage", "assay": "Fas driven model of liver damage (activating antibody Jo-2), plasma ALT activity", "assay_type": "in vivo, male C57B1/6 mice", "conditions": "10 mg/kg PO; six hours after Jo-2 IV; average of 2 studies, p<0.05 in each", "experimental": "as §1\nIn a Fas driven model of liver damage, an activating antibody to Fas (Jo-2) was administered IV. Six hours later, animals were anesthetized with Nembutal (50 mg/kg IP), and blood was taken by cardiac puncture. Plasma ALT activity was determined using a kit from Sigma-Aldrich."}, "[3]": {"tested_on": "full-length HCV replicon in Huh7 human hepatoma cell line (21-5)", "assay": "HCV RNA replicon antiviral evaluation assay", "assay_type": "cell-based, hepatitis C virus", "conditions": "72 hr; HCV RNA replicon levels by TaqMan RT-PCR; read-out: EC50 (concentration inhibition virus replication by 50%)", "method": "The assay was conducted as described by Pietschmann, T. et al., supra.\nHuman interferon alpha-2b was included in each run as a positive control compound. Subconfluent cultures of the ET line were plated out into 96-well plates that were dedicated for the analysis of cell numbers (cytotoxicity) or antiviral activity and the next day drugs were added to the appropriate wells. Cells were processed 72 hr later when the cells were still sub-confluent. HCV RNA replicon levels and the toxic concentration of drug that reduces cell numbers, as indicated by host cell ribosomal RNA (rRNA) levels, were assessed by TaqMan RT-PCR. The EC50 (concentration inhibition virus replication by 50%), IC50 (concentration decreasing cell viability by 50%) and SI50 (selective index: IC50/EC50) values were calculated."}, "[4]": {"tested_on": "Huh7 human hepatoma cell line (the 21-5 cell line)", "conditions": "read-out: IC50 for cytotoxicity (concentration decreasing cell viability by 50%); 72 hr; host cell rRNA levels by TaqMan RT-PCR", "description": "Cells were processed 72 hr later when the cells were still sub-confluent."}, "[5]": {"tested_on": "bile duct ligation (BDL) induced liver injury and hepatic fibrosis", "assay": "Bile duct ligation model of liver fibrosis", "assay_type": "in vivo, C57/BL6 wild-type mice", "conditions": "10 mg/kg once a day by gavage", "experimental": "The bile duct ligation model is a well characterized model of liver fibrosis. Briefly, C57/BL6 wild-type mice 6 to 8 weeks of age were subjected to bile duct ligation (BDL) for 14 days. Sham-operated wild type mice were used as controls. Either RO 113-0830 or CMC (carboxymethylcellulose) were administered by gavage in a dose of 10 mg/kg body weight once a day. Hepatocyte apoptosis was quantified by the TUNEL assay and immunofluorescence for activated caspases 3/7. Liver injury was assessed by histopathology, and quantification of bile infarcts. Hepatic fibrosis was assessed by Sirius red staining and quantitative morphometry. Real-time polymerase chain reaction (PCR) was used to measure mRNA transcripts for collagen 1 alpha (I) and alpha-smooth muscle actin."}}, "data": [{"smiles": "O=C(NO)C1(CS(=O)(=O)c2ccc(Oc3ccc(Cl)cc3)cc2)CCOCC1", "note": "[RO-113-0830]", "values": [{"measurement": "plasma ALT activity, effect in words", "setting": "[1]; 0.001-30 mg/kg PO 30 minutes before insult, six hours", "value": "dose-dependently decreased plasma ALT activity"}, {"measurement": "ED50 for decrease of plasma ALT activity", "setting": "[1]; PO by gavage 30 minutes before TNFα/D-Gln insult, ALT six hours later, average from 4 studies", "value": "0.26 ± 0.08", "unit": "mg/kg"}, {"measurement": "24 hour survival", "setting": "[2]", "value": "55±7.6", "unit": "%"}, {"measurement": "reduction of Fas-induced elevation in plasma ALT activity", "setting": "Fas-induced liver damage", "value": 50, "unit": "%"}, {"measurement": "EC50", "setting": "[3]", "value": 0.07, "unit": "µM"}, {"measurement": "IC50", "setting": "[4]", "value": "~25", "unit": "µM"}, {"measurement": "reduction of Sirius red staining of hepatic collagen", "setting": "[5]; 14 days of BDL", "value": 3, "unit": "fold"}, {"measurement": "reduction in the number of bile infarcts vs vehicle", "setting": "[5]; 14 days of BDL, histologic examination", "value": "> 70", "unit": "%"}, {"measurement": "decrease in TUNEL-positive hepatocytes vs vehicle", "setting": "[5]; 14 days of BDL, p<0.01", "value": 3, "unit": "fold"}, {"measurement": "decrease in caspase 3/7-positive hepatocytes vs vehicle", "setting": "[5]; 14 days of BDL, p<0.01", "value": 5, "unit": "fold"}, {"measurement": "reduction of hepatic mRNA for alpha-smooth muscle actin vs vehicle", "setting": "[5]; 14 days of BDL, real-time PCR", "value": "> 60", "unit": "%"}, {"measurement": "reduction of hepatic mRNA for collagen I vs vehicle", "setting": "[5]; 14 days of BDL, real-time PCR", "value": "> 60", "unit": "%"}, {"measurement": "overall animal survival following 14 days of BDL", "setting": "[5]; p<0.05", "value": "significantly enhanced"}]}]}
